For orientation: IC50 means the concentration that inhibits the measured activity by half. A higher IC50 goes with weaker potency.

A value given as a limit tells only on which side of the number the result lay.

Test [1] concerns MT4. The experiment in a line: Compound was tested for cytotoxicity against MT-4 cells (MT-4, RF strain of HIV-1). The class given is functional. The following applies: Homo sapiens, read-out: CD50 (the source's name).
The test system of test [2] is MT4. The test is described as follows: Compound was tested for inhibitory activity against HIV in whole cell assay (MT-4, RF strain of HIV-1 at a concentration up to […]). The note with it: Homo sapiens. The test is classed as functional, cell-based.
A short description of test [3]: Compound was tested for inhibitory activity against HIV in human peripheral blood mononuclear (PBM, LAV strain of HIV-l) cells. The class given is functional, cell-based.
A short description of test [4]: Compound was tested for cytotoxicity against human peripheral blood mononuclear (PBM, LAV strain of HIV-l) cells. The test is classed as functional. The following applies: read-out: CD50 (the source's name).
The subject of test [5] is MT4. The experiment in a line: Compound was tested for inhibitory activity against HIV in whole cell assay (MT-4, RF strain of HIV-1 at a concentration up to […]); IA: Found inactive. The test is classed as functional, cell-based, Homo sapiens.
The subject of test [6] is MT4. The experiment in a line: Compound was tested for cytotoxicity against MT-4 cells (MT-4, RF strain of HIV-1); Compound was found non cytotoxic. The test is classed as functional, cell-based. The following applies: Homo sapiens.

For the molecule `Nc1nc2c(ncn2[C@H]2CO[C@@H](CO)O2)c(=O)[nH]1`, the results for the CC50 (in the test on MT4 [1]; in test [4]) were greater than 425 µM and greater than 100 µM, respectively. The values for the IC50 (in the test with MT4 [2]; in test [3]) were 10.7 µM and 0.03 µM, respectively.

For `Nc1nc(O)c2ncn([C@@H]3CO[C@H](CO)O3)c2n1`, the IC50 entry in the test on MT4 [5] is reported as “Not Active”. Moreover, in the test on MT4 [6], the CD50 result was “Non-toxic”.

Values taken from ChEMBL document CHEMBL1153661, “Antiviral optically pure dioxolane purine nucleosides analogues” (Bioorg Med Chem Lett, 1993).
